Assays:
ERβ [1] = target: T1, ERβ (Homo sapiens, UniProt Q92731); assay: TNF-RE tkLuc repression, U2OS cells with ERβ; assay type: cell-based; parameters: expressed in transfected cells; host or cells: U2OS (human osteosarcoma)
ERβ [2] = target: T1, ERβ; settings: in the presence of ERβ
Text: (§1) Plasmid Construction. […] ERβ mutants were created with QuikChange site-directed mutagenesis kits (Stratagene), by using oligonucleotides containing the mutation. The mutants were sequenced with Sequenase kits (Amersham Pharmacia) to verify the presence of the mutation.

TNF-RE tkLuc = assay: Activation of TNF-RE tkLuc reporter (Example 2); assay type: cell-based; settings: for activation of TNF-RE tkLuc by antiestrogens: in contrast to E2
Text: as §1

breast cancer [3] = settings: among the 5129 women in the raloxifene treatment group, median follow-up of 40 months; cited from earlier work
breast cancer [4] = settings: five years of tamoxifen therapy; cited from earlier work
breast cancer [5] = settings: women at high risk for breast cancer; cited from earlier work

T1 sequence (Q92731 whole entry): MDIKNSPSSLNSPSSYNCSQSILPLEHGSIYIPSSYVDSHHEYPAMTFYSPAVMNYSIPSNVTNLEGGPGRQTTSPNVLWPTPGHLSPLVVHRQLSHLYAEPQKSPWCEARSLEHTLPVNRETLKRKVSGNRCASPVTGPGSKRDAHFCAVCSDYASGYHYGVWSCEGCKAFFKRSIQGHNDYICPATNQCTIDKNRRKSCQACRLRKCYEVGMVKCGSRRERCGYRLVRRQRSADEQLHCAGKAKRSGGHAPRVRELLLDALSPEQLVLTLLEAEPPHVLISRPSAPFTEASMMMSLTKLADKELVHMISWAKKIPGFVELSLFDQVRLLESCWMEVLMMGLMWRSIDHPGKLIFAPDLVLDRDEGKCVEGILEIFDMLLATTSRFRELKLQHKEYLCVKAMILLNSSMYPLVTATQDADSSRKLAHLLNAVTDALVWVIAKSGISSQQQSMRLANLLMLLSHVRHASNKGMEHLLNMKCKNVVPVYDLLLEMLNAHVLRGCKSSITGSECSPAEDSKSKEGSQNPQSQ

Compound: C[C@]12CC[C@@H]3c4ccc(O)cc4CC[C@H]3[C@@H]1CC[C@@H]2O [E2, estradiol]
- repression of TNF-α activation of TNF-RE (ERβ [1]): 100%
- repression of TNF-α activation of TNF-RE tkLuc (ERβ [2]): 60-80%

Compound: C[C@]12CC[C@@H]3c4ccc(O)cc4C[C@@H](CCCCCCCCC[S+]([O-])CCCC(F)(F)C(F)(F)F)[C@H]3[C@@H]1CC[C@@H]2O (stereo partly shown) [ICI 182, 780]
- activation of TNF-RE tkLuc by antiestrogens (TNF-RE tkLuc): 2 fold

Compound: O=C(c1ccc(OCCN2CCCCC2)cc1)c1c(-c2ccc(O)cc2)sc2cc(O)ccc12 [raloxifene]
- cases of breast cancer (breast cancer [3]): 13 cases
- activation of TNF-RE tkLuc by antiestrogens (TNF-RE tkLuc): 2 fold

Compound: CC/C(=C(\c1ccccc1)c1ccc(OCCN(C)C)cc1)c1ccccc1 [tamoxifen]
- reduction of mortality from breast cancer (breast cancer [4]): 22%
- reduction of the risk of recurrences (breast cancer [4]): 42%
- reduction of the risk of primary invasive breast cancer (breast cancer [5]): 49%
- activation of TNF-RE tkLuc by antiestrogens (TNF-RE tkLuc): 2 fold

Compound: TNF-α
- activation of 3 copies of the TNF-RE (−125 to −82) upstream of the tk promoter (TNF-RE tkLuc; TNF-RE tkLuc): 5-10 fold

Source: patent US8092841B2
